Assay in all cases: biochemical
What all share (parameters): Eurofins DiscoverX kinase panel, competitive binding assay at 1 uM, percent of DMSO control
Holding throughout (conditions): competitive binding, percent of DMSO control

One assay deals with T1, CAMK4 (Homo sapiens, UniProt Q16566).
T1 sequence (Q16566 1-473): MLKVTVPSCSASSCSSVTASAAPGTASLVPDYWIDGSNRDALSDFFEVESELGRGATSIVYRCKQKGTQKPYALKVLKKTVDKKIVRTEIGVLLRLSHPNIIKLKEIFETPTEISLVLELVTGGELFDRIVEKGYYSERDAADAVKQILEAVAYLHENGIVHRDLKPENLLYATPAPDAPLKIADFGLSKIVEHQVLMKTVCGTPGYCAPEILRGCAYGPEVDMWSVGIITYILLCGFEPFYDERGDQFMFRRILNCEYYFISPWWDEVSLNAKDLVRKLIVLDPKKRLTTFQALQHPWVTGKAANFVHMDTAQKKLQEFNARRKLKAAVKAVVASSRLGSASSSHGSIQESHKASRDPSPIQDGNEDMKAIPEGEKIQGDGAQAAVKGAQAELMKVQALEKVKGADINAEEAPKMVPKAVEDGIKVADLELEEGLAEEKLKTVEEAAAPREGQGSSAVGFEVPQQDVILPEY
Summed up: (§1)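 Competitive binding assay across a 96-kinase panel with KIF18A compounds at 1 µM; values given as percentage of control (POC), single experiment.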

Another assay has as its target EGFR (Homo sapiens, UniProt P00533). The method in brief:
as §1

Another assay addresses T2, MSK1 (Homo sapiens, UniProt O75582).
T2 construct: gene RPS6KA5
Summed up: as §1

The next assay has as its target T3, TSSK1B (Homo sapiens, UniProt Q9BXA7).
T3 sequence (Q9BXA7 1-367): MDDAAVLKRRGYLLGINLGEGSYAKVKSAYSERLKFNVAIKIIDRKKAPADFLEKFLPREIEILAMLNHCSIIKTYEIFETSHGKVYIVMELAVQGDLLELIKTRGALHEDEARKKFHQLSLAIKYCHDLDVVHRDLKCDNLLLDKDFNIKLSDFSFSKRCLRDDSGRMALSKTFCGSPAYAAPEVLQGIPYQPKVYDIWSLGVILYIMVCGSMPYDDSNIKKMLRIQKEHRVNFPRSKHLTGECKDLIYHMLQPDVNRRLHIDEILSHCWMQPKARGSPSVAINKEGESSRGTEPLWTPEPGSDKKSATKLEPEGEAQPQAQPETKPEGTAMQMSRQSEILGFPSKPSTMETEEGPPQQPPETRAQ
The method in brief: as §1

In a further assay the target is Syk (Homo sapiens, UniProt P43405). The method in brief:
as §1

In a further assay the target is MAPKAPK2 (Homo sapiens, UniProt P49137). The method in brief: as §1
MAPKAPK2, sequence (P49137 whole entry): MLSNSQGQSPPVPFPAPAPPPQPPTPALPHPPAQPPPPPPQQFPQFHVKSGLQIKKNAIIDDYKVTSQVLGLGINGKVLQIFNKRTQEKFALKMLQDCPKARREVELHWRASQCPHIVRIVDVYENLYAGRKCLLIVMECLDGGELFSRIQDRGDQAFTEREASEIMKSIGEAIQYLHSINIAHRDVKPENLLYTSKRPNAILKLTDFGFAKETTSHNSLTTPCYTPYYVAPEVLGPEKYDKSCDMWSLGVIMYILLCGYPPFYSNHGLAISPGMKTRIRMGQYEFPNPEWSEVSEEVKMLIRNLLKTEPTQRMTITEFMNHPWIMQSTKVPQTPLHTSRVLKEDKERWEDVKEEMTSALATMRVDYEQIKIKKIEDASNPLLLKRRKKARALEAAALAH
A further assay deals with CDK4 (Homo sapiens, UniProt P11802). The method in brief: as §1
CDK4, sequence (P11802 whole entry): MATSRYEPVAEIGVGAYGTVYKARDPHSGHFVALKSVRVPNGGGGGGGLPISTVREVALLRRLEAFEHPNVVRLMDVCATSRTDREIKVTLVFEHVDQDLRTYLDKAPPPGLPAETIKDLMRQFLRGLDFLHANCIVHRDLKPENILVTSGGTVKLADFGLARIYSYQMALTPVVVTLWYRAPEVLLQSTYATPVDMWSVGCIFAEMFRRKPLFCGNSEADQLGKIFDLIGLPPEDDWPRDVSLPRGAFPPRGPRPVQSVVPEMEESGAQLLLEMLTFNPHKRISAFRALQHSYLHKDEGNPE
The next assay deals with Stk33 (Homo sapiens, UniProt Q9BYT3). The method in brief:
as §1

[1] abbreviates: read-out: Kinome Profiling performed by Eurofins DiscoverX / AM-0277, 1.0 µM / POC.
The mark [2] stands for this setting: read-out: Kinome Profiling performed by Eurofins DiscoverX / AM-1882, 1.0 µM / POC.
Setting [3] is: read-out: Kinome Profiling performed by Eurofins DiscoverX / AM-5308, 1.0 µM / POC.

Read-outs that look alike come from different tables or passages of the source.

The record followed here is paper PMC10824666 (Nature Cancer, 2023).

EGFR, sequence (P00533 whole entry): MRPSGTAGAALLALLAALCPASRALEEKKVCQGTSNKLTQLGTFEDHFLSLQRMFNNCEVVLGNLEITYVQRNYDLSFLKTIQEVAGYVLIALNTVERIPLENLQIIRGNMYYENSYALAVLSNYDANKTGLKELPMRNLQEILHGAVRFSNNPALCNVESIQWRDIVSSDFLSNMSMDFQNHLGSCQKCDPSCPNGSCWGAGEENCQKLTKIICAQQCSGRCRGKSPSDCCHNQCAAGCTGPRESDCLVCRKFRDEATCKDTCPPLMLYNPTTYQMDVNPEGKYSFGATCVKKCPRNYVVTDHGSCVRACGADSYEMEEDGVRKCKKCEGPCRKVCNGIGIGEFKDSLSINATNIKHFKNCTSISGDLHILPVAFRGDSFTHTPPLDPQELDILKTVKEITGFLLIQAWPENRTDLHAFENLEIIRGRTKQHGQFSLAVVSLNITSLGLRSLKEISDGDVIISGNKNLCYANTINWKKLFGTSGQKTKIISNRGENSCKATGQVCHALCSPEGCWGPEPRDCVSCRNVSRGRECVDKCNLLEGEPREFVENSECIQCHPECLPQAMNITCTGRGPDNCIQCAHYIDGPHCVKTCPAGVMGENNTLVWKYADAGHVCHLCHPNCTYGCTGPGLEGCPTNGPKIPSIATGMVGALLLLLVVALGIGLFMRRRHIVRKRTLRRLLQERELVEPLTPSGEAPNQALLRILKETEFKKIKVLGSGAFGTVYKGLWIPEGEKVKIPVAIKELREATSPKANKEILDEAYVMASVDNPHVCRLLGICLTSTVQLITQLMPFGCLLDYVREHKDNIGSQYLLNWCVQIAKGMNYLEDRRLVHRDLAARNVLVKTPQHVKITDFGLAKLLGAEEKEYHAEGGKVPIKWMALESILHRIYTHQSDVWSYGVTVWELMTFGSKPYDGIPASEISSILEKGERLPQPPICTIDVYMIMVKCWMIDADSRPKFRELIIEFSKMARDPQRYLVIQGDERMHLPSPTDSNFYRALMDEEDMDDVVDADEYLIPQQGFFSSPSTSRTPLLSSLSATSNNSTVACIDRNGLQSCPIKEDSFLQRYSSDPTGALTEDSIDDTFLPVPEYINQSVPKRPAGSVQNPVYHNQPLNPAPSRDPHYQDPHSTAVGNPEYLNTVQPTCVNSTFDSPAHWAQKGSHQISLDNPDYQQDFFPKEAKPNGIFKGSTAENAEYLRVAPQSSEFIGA
Stk33, sequence (Q9BYT3 whole entry): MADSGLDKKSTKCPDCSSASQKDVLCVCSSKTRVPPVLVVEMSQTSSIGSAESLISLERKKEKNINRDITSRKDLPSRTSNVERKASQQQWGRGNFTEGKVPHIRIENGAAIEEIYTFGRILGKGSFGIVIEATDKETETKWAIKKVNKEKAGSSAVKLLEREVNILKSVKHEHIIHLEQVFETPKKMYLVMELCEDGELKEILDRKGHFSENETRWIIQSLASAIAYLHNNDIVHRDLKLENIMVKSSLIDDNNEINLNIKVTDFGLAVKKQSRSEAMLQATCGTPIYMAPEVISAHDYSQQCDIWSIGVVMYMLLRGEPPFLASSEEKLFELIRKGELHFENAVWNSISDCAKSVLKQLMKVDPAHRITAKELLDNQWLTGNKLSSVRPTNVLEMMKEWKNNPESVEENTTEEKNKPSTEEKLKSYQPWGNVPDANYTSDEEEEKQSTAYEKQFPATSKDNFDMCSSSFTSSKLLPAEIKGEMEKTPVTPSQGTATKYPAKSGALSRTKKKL
T2 sequence (O75582 whole entry): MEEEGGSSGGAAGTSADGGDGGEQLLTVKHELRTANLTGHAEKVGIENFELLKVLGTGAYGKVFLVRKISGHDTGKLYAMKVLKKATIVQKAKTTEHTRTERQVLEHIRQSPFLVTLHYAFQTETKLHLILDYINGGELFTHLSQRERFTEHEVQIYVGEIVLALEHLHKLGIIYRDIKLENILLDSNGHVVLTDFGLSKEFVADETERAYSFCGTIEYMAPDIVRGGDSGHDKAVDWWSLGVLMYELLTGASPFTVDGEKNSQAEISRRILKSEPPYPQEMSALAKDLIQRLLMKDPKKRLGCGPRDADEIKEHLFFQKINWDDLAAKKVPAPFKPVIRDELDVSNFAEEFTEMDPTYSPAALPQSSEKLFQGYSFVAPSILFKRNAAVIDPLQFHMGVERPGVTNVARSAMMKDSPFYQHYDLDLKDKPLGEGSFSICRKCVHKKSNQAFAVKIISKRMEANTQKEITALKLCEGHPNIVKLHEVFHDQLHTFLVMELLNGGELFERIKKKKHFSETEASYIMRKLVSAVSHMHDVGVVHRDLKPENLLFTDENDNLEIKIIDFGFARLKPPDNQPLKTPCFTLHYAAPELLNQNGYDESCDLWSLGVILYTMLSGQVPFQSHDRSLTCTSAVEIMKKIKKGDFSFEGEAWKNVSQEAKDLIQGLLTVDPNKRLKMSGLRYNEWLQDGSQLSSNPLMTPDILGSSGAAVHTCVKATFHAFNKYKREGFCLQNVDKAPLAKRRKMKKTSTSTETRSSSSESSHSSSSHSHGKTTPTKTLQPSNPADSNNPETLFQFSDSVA

For `CC(C)(CO)Nc1ccc(C(=O)Nc2cccc(S(=O)(=O)C3CCCC3)c2)c(N2CCC3(CC2)CC3)n1` [AM-0277], the remaining activity at 1 µM amounted to 81% at CAMK4 (setting [1]); 93% at EGFR (setting [1]); 94% at MSK1 (setting [1]); 84% on TSSK1B (setting [1]); 100% at Syk (setting [1]); 79% on MAPKAPK2 (setting [1]). The remaining activity at 1 µM at CDK4 (setting [1]) worked out at 100%; on Stk33 (setting [1]) it was 86%.

With `CC(C)(C)NS(=O)(=O)c1cccc(NC(=O)c2ccc(S(=O)(=O)NC(C)(C)C)cc2N2CCC3(CC2)CC3)c1` [AM-1882], the remaining activity at 1 µM was 99% at CAMK4 (setting [2]); 100% on EGFR (setting [2]); 100% on MSK1 (setting [2]); 100% at TSSK1B (setting [2]); 89.5% at Syk (setting [2]); 95.5% at MAPKAPK2 (setting [2]). Further, the remaining activity at 1 µM on CDK4 (setting [2]) stood at 64%; on Stk33 (setting [2]) it was 98%.

Consider `C[C@@H]1CN(c2cccc(NC(=O)c3ccc(NS(=O)(=O)CCO)cc3N3CCC4(CC3)CC4)n2)CCO1` [AM-5308], for which the remaining activity at 1 µM on CAMK4 (setting [3]) is 100%; at EGFR (setting [3]), 83%; at MSK1 (setting [3]) it was 91.5%; on TSSK1B (setting [3]) it was 100%; on Syk (setting [3]), 79.5%; on MAPKAPK2 (setting [3]) it was 95%. Further, the remaining activity at 1 µM at CDK4 (setting [3]) was 98.5%; at Stk33 (setting [3]), 89%.
